Data reported in patent publication US8207156B2, “Substituted pyrazoline compounds, their preparation and use as medicaments” (Laboratorios Del Dr. Esteve, S.A., priority 2005, dated 2012).
Counter-ions that a name gives are not always drawn.

Biological target: T1, CB1 receptor (UniProt P20272)
T1 construct: other: compound at 10^−7 M; radioligand [3H]-CP55940; other: compound at 10^−8 M
Experiment: In-vitro determination of affinity to CB1/CB2-receptors (radioligand [3H]-CP55940 binding)
Conditions: for Inhibition [%], 10^−7 M: compound at 10^−7 M; for Inhibition [%], 10^−8 M: compound at 10^−8 M
Method: The in-vitro determination of the affinity of the inventive substituted pyrazoline compounds to CB1/CB2-Rezeptors is carried out as described in the publication of Ruth A. Ross, Heather C. Brockie et al., “Agonist-inverse agonist characterization at CB1 and CB2 cannabinoid receptors of L-759633, L759656 and AM630”, British Journal of Pharmacology, 126, 665-672, (1999), whereby the transfected human CB1 and CB2 receptors of Receptor Biology, Inc. are used. The radioligand used for both receptors is [^3H]-CP55940. The respective parts of the description is hereby incorporated by reference and forms part of the present disclosure.
Binding affinity to CB1 receptor was evaluated according to a modification of the method described by Govaerts et al., Eur J Pharmac Sci 23, 233-243 (2004). The respective parts of the description is hereby incorporated by reference and forms part of the present disclosure.
Briefly, cerebellum from male wistar rats (250-300 g) were carefully dissected on ice and homogenates were prepared with Potter-Helveheim in a cold 50 mM Tris-HCl solution containing 5 mM MgCl2, 1 mM EDTA and 0.25 M sucrose, pH 7.4. The suspension was centrifuged at 1,000×g for 5 minutes. The supernatants were collected and centrifuged 50,000×g for 15 minutes. The resulting pellets were then resuspended in Tris-HCl buffer without sucrose, homogenized and incubated for 15 min at 37° C. in an orbital shaker bath and centrifuged again at 50,000×g for 15 min. Pellets were weighted, resuspended in Tris-HCl buffer without sucrose, homogenized with Ultraturrax at 13,500 rpm for 3×5 seconds and alicuoted in 0.9 ml volumes in Eppendorf tubes. Alicuotes were centrifuged at 20,800×g for 5 minutes, supernatants discarded and pellets were frozen at −80° C. until use. Total protein concentration was determined using the Bio-Rad Lowry method based kit. Competitive binding experiments were performed in presence of 1 nM [^3H]-CP 55,940 in siliconized glass tubes containing 100 μg protein/tube resuspended in 1 ml final volume of 50 mM Tris-HCl, 5 mM MgCl2, 1 mM EDTA, 0.5% (w/v) bovine serum albumin, pH 7.4. Compounds were present at various concentrations and the non specific binding was determined in the presence of 10 μM HU-210. After 1 hour incubation at 30° C., the suspension was rapidly filtered through 0.5% PEI pre-treated GF/B fiber filters on a 96-well harvester and washed 3 times with 3 ml ice-cold binding buffer without bovine serum albumin. Radioactivity on filters was measured with Wallac Winspectral 1414 counter by liquid scintillation in 6 ml Ecoscint H (National Diagnostics, U.K.). Assays were made in triplicates.
Binding data were analyzed by non-linear regression with the software GraphPad Prism Version 3.03.

SMILES | Inhibition [%], 10^−7 M [%] | Inhibition [%], 10^−8 M [%]
COC[C@H]1CCCN1NC(=O)C1=NN(c2ccc(Cl)cc2Cl)C(c2ccc(Cl)cc2)C1 (some centres unmarked) [Example 13, 5-(4-Chloro-phenyl)-1-(2,4-dichloro-phenyl)-4,5-dihydro-1H-pyrazole-3-carboxylic acid (2-methoxymethyl-pyrrolidin-1-yl)-amide] | 31.8 | 14.3
CCCCNC(=O)C1=NN(c2ccc(Cl)cc2Cl)C(c2ccc(Cl)cc2)C1 (centres unmarked) [Example 72, 5-(4-Chloro-phenyl)-1-(2,4-dichloro-phenyl)-4,5-dihydro-1H-pyrazole-3-carboxylic acid butylamide] | 19.6 | −10.2
CN(C)CCCNC(=O)C1=NN(c2ccc(Cl)cc2Cl)C(c2ccc(Cl)cc2)C1 (centres unmarked) [Example 73, 5-(4-Chloro-phenyl)-1-(2,4-dichloro-phenyl)-4,5-dihydro-1H-pyrazole-3-carboxylic acid (3-dimethylamino-propyl)-amide] | −18.9 | 15.7
O=C(NCCC1CCCC1)C1=NN(c2ccc(Cl)cc2Cl)C(c2ccc(Cl)cc2)C1 (centres unmarked) [Example 87, 5-(4-Chloro-phenyl)-1-(2,4-dichloro-phenyl)-4,5-dihydro-1H-pyrazole-3-carboxylic acid (2-cyclopentyl-ethyl)-amide] | 15.2 | −2.4
COc1ccc(C2CC(C(=O)O)=NN2c2ccc(Cl)cc2Cl)cc1 (centres unmarked) [Example 127, 1-(2,4-Dichloro-phenyl)-5-(4-methoxy-phenyl)-4,5-dihydro-1H-pyrazole-3-carboxylic acid] | 7.8 | 7.4
COc1ccc(C2CC(C(=O)NC3CCCCCC3)=NN2c2ccc(Cl)cc2Cl)cc1 (centres unmarked) [Example 132, 5-(4-methoxyphenyl)-1-(2,4-dichloro-phenyl)-4,5-dihydro-1H-pyrazole-3-carboxylic acid cycloheptylamide] | 37.8 | 18.2
Cl.O=C(NN1CCCCCCC1)C1=NN(c2ccc(Cl)cc2Cl)C(c2ccc(Cl)cc2)C1 (centres unmarked) [Example 145, 5-(4-Chloro-phenyl)-1-(2,4-dichloro-phenyl)-4,5-dihydro-1H-pyrazole-3-carboxylic acid azocan-1-ylamide hydrochloride] | 57.6 | 12.3
COc1ccc(C2CC(C(=O)NN3CCCCCCC3)=NN2c2ccc(Cl)cc2Cl)cc1 (centres unmarked) [Example 148, 5-(4-methoxy-phenyl)-1-(2,4-dichloro-phenyl)-4,5-dihydro-1H-pyrazole-3-carboxylic acid azocan-1-ylamide] | 80.3 | 56.1
Cl.O=C(NN1CCCCC1)C1=NN(c2ccc(Cl)cc2Cl)C(c2ccc(O)cc2)C1 (centres unmarked) [Example 172, 1-(2,4-Dichloro-phenyl)-5-(4-hydroxy-phenyl)-4,5-dihydro-1H-pyrazole-3-carboxylic acid piperidin-1-ylamide hydrochloride] | 1.4 | 5.6
Cl.O=C(NN1CCCCCCC1)C1=NN(c2ccc(Cl)cc2Cl)[C@@H](c2ccc(Cl)cc2)C1 [Example 176, (R)-5-(4-Chloro-phenyl)-1-(2,4-dichloro-phenyl)-4,5-dihydro-1H-pyrazole-3-carboxylic acid azocan-1-ylamide hydrochloride] | 71.3 | 29.5
Cl.O=C(NN1CCCCCCC1)C1=NN(c2ccc(Cl)cc2Cl)[C@H](c2ccc(Cl)cc2)C1 [Example 177, (S)-5-(4-Chloro-phenyl)-1-(2,4-dichloro-phenyl)-4,5-dihydro-1H-pyrazole-3-carboxylic acid azocan-1-ylamide hydrochloride] | 22.2 | −5.4
Cl.O=C(NN1CCc2ccccc21)C1=NN(c2ccc(Cl)cc2Cl)C(c2ccc(F)cc2)C1 (centres unmarked) [Example 179, 1-(2,4-Dichloro-phenyl)-5-(4-fluoro-phenyl)-4,5-dihydro-1H-pyrazole-3-carboxylic acid (2,3-dihydro-indol-1-yl)-amide hydrochloride] | 33.9 | 11.5
O=C(O)C1=NN(c2ccc(Cl)cc2Cl)C(c2ccc(O)cc2)C1 (centres unmarked) [Example 180, 1-(2,4-Dichloro-phenyl)-5-(4-hydroxy-phenyl)-4,5-dihydro-1H-pyrazole-3-carboxylic acid] | 9.3 | 4.7
Cl.O=C(NN1CCc2ccccc21)C1=NN(c2ccc(Cl)cc2Cl)[C@H](c2ccc(Cl)cc2)C1 [Example 182, (S)-5-(4-Chloro-phenyl)-1-(2,4-dichloro-phenyl)-4,5-dihydro-1H-pyrazole-3-carboxylic acid (2,3-dihydro-indol-1-yl)-amide hydrochloride] | 31.7 | 18.8
Cl.O=C(NN1CCCCCC1)C1=NN(c2ccc(Cl)cc2Cl)[C@H](c2ccc(Cl)cc2)C1 [Example 183, (S)-5-(4-Chloro-phenyl)-1-(2,4-dichloro-phenyl)-4,5-dihydro-1H-pyrazole-3-carboxylic acid azepan-1-ylamide hydrochloride] | 31.9 | 3.2
O=C(NN1CC2CCCC2C1)C1=NN(c2ccc(Cl)cc2Cl)[C@H](c2ccc(Cl)cc2)C1 (stereo partly drawn) [Example 184, (S)-5-(4-Chloro-phenyl)-1-(2,4-dichloro-phenyl)-4,5-dihydro-1H-pyrazole-3-carboxylic acid (hexahydro-cyclopenta[c]pyrrol-2-yl)-amide hydrochloride] | 24.8 | 5.7
O=C(NN1CCCCCC1)C1=NN(c2ccc(Cl)cc2Cl)[C@H](c2ccc(Cl)cc2)C1 [Example 185, (S)-5-(4-Chloro-phenyl)-1-(2,4-dichloro-phenyl)-4,5-dihydro-1H-pyrazole-3-carboxylic acid azepan-1-ylamide] | 34.1 | −11.6
O=C(NC1CCCCCC1)C1=NN(c2ccc(Cl)cc2Cl)[C@H](c2ccc(Cl)cc2)C1 [Example 186, (S)-5-(4-Chloro-phenyl)-1-(2,4-dichloro-phenyl)-4,5-dihydro-1H-pyrazole-3-carboxylic acid cycloheptylamide] | 28.1 | 3.2
CN1CCN(C(=O)C2=NN(c3ccc(Cl)cc3Cl)C(c3ccc(Cl)cc3)C2)CC1.Cl (centres unmarked) [Example 195, [5-(4-Chloro-phenyl)-1-(2,4-dichloro-phenyl)-4,5-dihydro-1H-pyrazole-3-yl]-(4-methyl-piperazin-1-yl)-methanone hydrochloride] | 5.8 | 4.7
